The values that follow come from EP4740962A1, “PHARMACEUTICAL COMPOSITION, FORMULATION CONTAINING PHARMACEUTICAL COMPOSITION, KIT CONTAINING PHARMACEUTICAL COMPOSITION, PREPARATION METHOD FOR PHARMACEUTICAL COMPOSITION, AND USE OF PHARMACEUTICAL COMPOSITION” (Shanghai WD Pharmaceutical Co., Ltd, priority 2023, dated 2025).

A short description of series [1]: Compatibility study of voriconazole granule raw material and excipients at 40°C/75% RH. The series is classed as physicochemical. The text has this:
(§1) After preparation into the formulation, there was a risk of exceeding the limit for related substances in terms of stability.

A short description of series [2]: Compatibility study of carbidopa-levodopa granule raw materials and excipients at 40°C/75% RH. The series is classed as physicochemical.
Text: as §1

Turning to `C[C@@H](c1ncncc1F)[C@](O)(Cn1cncn1)c1ccc(F)cc1F` [Voriconazole], the Appearance entry in series [1] is “No change”. Moreover, the Total impurities (%) in series [1] (0 Days), in series [1] (14 Days) and in series [1] (28 Days) was 0.01% each time.
Consider `C[C@@](Cc1ccc(O)c(O)c1)(NN)C(=O)O` [Carbidopa], for which the Appearance result in series [2] was “No change”. Besides, the “Total impurities (%)” value in series [2] (0 Days) is 0.10%; in series [2] (14 Days), 0.08%; in series [2] (28 Days), 0.07%.
`N[C@@H](Cc1ccc(O)c(O)c1)C(=O)O` [Levodopa]: the Appearance entry in series [2] is on record as “No change”. Further, the “Total impurities (%)” value in series [2] (0 Days) is reported as “Not detected”; in series [2] (14 Days) it was 0.03%; in series [2] (28 Days) it was 0.07%.
